Test system: CN0375-F725-PDC KRAS spheroid viability
Assay: Anticancer human tumor CN0375-F725-PDC patient-derived colon carcinoma cell line growth inhibition [KRAS2]
Conditions: spheroids with HUVEC and MSC; for viability, T/C: stronger effect = lower value
Method in brief: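 KRAS-mutant tumor cells were grown as spheroids with HUVEC endothelial cells and human MSCs as stroma. Targeted agents were tested alone and with KRAS pathway inhibitors. Doses started at or near clinical Cmax, or 10 microM, descending half-log.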

[1] = curve of first compound, second compound 0.1 µM
[2] = curve of first compound, second compound 0.316 µM
[3] = curve of first compound, second compound 1 µM
[4] = curve of first compound, second compound 3.16 µM
[5] = second compound 0.1 µM, first compound 0.0316 µM
[6] = second compound 0.1 µM, first compound 0.1 µM
[7] = second compound 0.1 µM, first compound 0.316 µM
[8] = second compound 0.1 µM, first compound 1 µM
[9] = second compound 0.1 µM, first compound 3.16 µM
[10] = second compound 0.1 µM, first compound 10 µM
[11] = second compound 0.316 µM, first compound 0.0316 µM
[12] = second compound 0.316 µM, first compound 0.1 µM
[13] = second compound 0.316 µM, first compound 0.316 µM
[14] = second compound 0.316 µM, first compound 1 µM
[15] = second compound 0.316 µM, first compound 3.16 µM
[16] = second compound 0.316 µM, first compound 10 µM
[17] = second compound 1 µM, first compound 0.0316 µM
[18] = second compound 1 µM, first compound 0.1 µM
[19] = second compound 1 µM, first compound 0.316 µM
[20] = second compound 1 µM, first compound 1 µM
[21] = second compound 1 µM, first compound 3.16 µM
[22] = second compound 1 µM, first compound 10 µM
[23] = second compound 3.16 µM, first compound 0.0316 µM
[24] = second compound 3.16 µM, first compound 0.1 µM
[25] = second compound 3.16 µM, first compound 0.316 µM
[26] = second compound 3.16 µM, first compound 1 µM
[27] = second compound 3.16 µM, first compound 3.16 µM
[28] = second compound 3.16 µM, first compound 10 µM
[29] = curve of first compound, second compound 10 µM
[30] = second compound 10 µM, first compound 0.0316 µM
[31] = second compound 10 µM, first compound 0.1 µM
[32] = second compound 10 µM, first compound 0.316 µM
[33] = second compound 10 µM, first compound 1 µM
[34] = second compound 10 µM, first compound 3.16 µM
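Note: spheroids exposed to agents for 7 days.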

Row | SMILES | IC50 [1] [µM] | IC50 [2] [µM] | IC50 [3] [µM] | IC50 [4] [µM] | viability, T/C [5] [%] | viability, T/C [6] [%] | viability, T/C [7] [%] | viability, T/C [8] [%] | viability, T/C [9] [%] | viability, T/C [11] [%] | viability, T/C [12] [%] | viability, T/C [13] [%] | viability, T/C [14] [%] | viability, T/C [15] [%] | viability, T/C [17] [%] | viability, T/C [18] [%] | viability, T/C [19] [%] | viability, T/C [20] [%] | viability, T/C [21] [%] | viability, T/C [23] [%] | other results
1 | CN(C)C/C=C/C(=O)Nc1cc2c(Nc3ccc(F)c(Cl)c3)ncnc2cc1O[C@H]1CCOC1 | – | – | – | – | – | – | – | – | – | – | – | – | – | – | – | – | – | – | – | – | viability, T/C (compound 0.000316 µM): 105% [middle of 5 runs]; viability, T/C (compound 0.001 µM): 94.1% [middle of 5 runs]; viability, T/C (compound 0.00316 µM): 90.4% [middle of 5 runs]; viability, T/C (compound 0.01 µM): 88.3% [middle of 5 runs]; viability, T/C (compound 0.0316 µM): 79.2% [middle of 5 runs]; viability, T/C (compound 0.1 µM): 81.1% [middle of 5 runs]; IC50 (curve of compound): > 0.1 µM
2 | COc1cc(Nc2ncc3c(n2)-c2ccc(Cl)cc2C(c2c(F)cccc2OC)=NC3)ccc1C(=O)O + C=CC(=O)N1CCN(c2nc(OCC3CCCN3C)nc3c2CCN(c2cccc4cccc(C)c24)C3)CC1CC#N | > 10 | > 10 | > 10 | < 0.0316 | 109 | 105 | 91.3 | 92.5 | 95.9 | 103 | 101 | 94.8 | 91.8 | 88 | 88.3 | 90.8 | 82.9 | 83.2 | 83.9 | 16.5 | IC50 (curve of first compound, second compound 0.0316 µM): > 10 µM; viability, T/C (second compound 0.0316 µM, first compound 0.0316 µM): 96.6%; viability, T/C (second compound 0.0316 µM, first compound 0.1 µM): 108%; viability, T/C (second compound 0.0316 µM, first compound 0.316 µM): 91.8%; viability, T/C (second compound 0.0316 µM, first compound 1 µM): 95%; viability, T/C (second compound 0.0316 µM, first compound 3.16 µM): 93.9%; viability, T/C (second compound 0.0316 µM, first compound 10 µM): 74.9%; viability, T/C [10]: 79.3%; viability, T/C [16]: 75.7%; viability, T/C [22]: 73.8%; viability, T/C [24]: 23%; viability, T/C [25]: 14%; viability, T/C [26]: 44.8%; viability, T/C [27]: 42.3%; viability, T/C [28]: 22.3%
3 | Cn1nccc1Nc1nccc(-c2cc3c(s2)C(C)(C)N(CCN2CCOCC2)C3=O)n1 + C=CC(=O)N1CCN(c2nc(=O)n(-c3c(C)ccnc3C(C)C)c3nc(-c4c(O)cccc4F)c(F)cc23)C(C)C1 | 6.96 | 5.32 | > 10 | 2.34 | 117 | 88 | 70.1 | 70.6 | 55.5 | 120 | 93.9 | 64.3 | 63.8 | 54.3 | 119 | 99.3 | 66 | 61.2 | 54.9 | 120 | IC50 [29]: 0.674 µM; viability, T/C [10]: 45.3%; viability, T/C [16]: 45%; viability, T/C [22]: 46.1%; viability, T/C [24]: 105%; viability, T/C [25]: 67.8%; viability, T/C [26]: 60.3%; viability, T/C [27]: 50.2%; viability, T/C [28]: 42.4%; viability, T/C [30]: 103%; viability, T/C [31]: 101%; viability, T/C [32]: 61.7%; viability, T/C [33]: 48.8%; viability, T/C [34]: 45.4%; viability, T/C (second compound 10 µM, first compound 10 µM): 32.2%
4 | CC1COCCN1c1cc(-c2ccnn2C)c2ccnc(-c3ccn[nH]3)c2n1 (configuration not stated) + C=CC(=O)N1CCN(c2nc(=O)n(-c3c(C)ccnc3C(C)C)c3nc(-c4c(O)cccc4F)c(F)cc23)C(C)C1 | > 3.16 | > 3.16 | > 3.16 | > 3.16 | 99.4 | 88.8 | 81.6 | 65.5 | 55.8 | 95.3 | 80 | 78.2 | 65.5 | 52.6 | 103 | 89 | 80.5 | 65.6 | 53.8 | 107 | IC50 [29]: 1.78 µM; viability, T/C (second compound 0.1 µM, first compound 0.01 µM): 107%; viability, T/C (second compound 0.316 µM, first compound 0.01 µM): 104%; viability, T/C (second compound 1 µM, first compound 0.01 µM): 100%; viability, T/C (second compound 3.16 µM, first compound 0.01 µM): 101%; viability, T/C [24]: 89.3%; viability, T/C [25]: 76.7%; viability, T/C [26]: 64.4%; viability, T/C [27]: 53.5%; viability, T/C (second compound 10 µM, first compound 0.01 µM): 102%; viability, T/C [30]: 103%; viability, T/C [31]: 84.5%; viability, T/C [32]: 71.7%; viability, T/C [33]: 55.5%; viability, T/C [34]: 44.6%

From PubChem BioAssay AID1963860 (Molecular Pharmacology Branch, DTP, NCI, 2024)
